Measurements published in patent publication US11453640B2, “Small molecules for disrupting the super elongation complex and inhibiting transcription elongation for cancer therapy” (NORTHWESTERN UNIVERSITY, priority 2018, dated 2022).

How the values were obtained:
[1] = test system: Tat-induced HIV genome activation in J-Lat 6.3 cells; experiment: Tat-induced HIV genome activation in J-Lat 6.3 cells (GFP, FACS); assay type: cell-based, human; conditions: 20 μM, 10 nM PMA, 17 hr
Experimental: FIG. 12, related to FIG. 5. SEC inhibitors block transcription elongation in SEC-dependent rapid response models. […] (B) Gene Ontology analysis of the 136 identified heat shock-induced genes in HCT-116 cells. (C) Workflow of Tat-induced HIV genome activation in J-Lat 6.3 cells. J-Lat 6.3 cells contain an integrated copy of the HIV genome that has GFP replacing HIV nef and could be activated by Phorbol-12-Myristate-13-Acetate (PMA). J-Lat 6.3 cells were treated with vehicle or 20 μM SEC inhibitor along with PMA to activate the HIV genome transcription, which could be monitored by flow cytometry analysis. (D-E) SEC inhibitors block Tat-induced HIV genome activation in J-Lat 6.3 cells. (D) FACS analysis of J-Lat 6.3 cells treated with 10 nM PMA and SEC inhibitors for 17 hr. […] Unpaired two-way ANOVA was used to compare the groups between DMSO and SEC inhibitors. ***, p<0.001. Data are represented as Mean+/−SD. […]
Induction of J-Lat 6.3 Cells. […] Cells were washed in PBS and GFP fluorescence was measured with a FACSVantage instrument (Becton Dickinson, San Jose, Calif.). […] A two-parameter analysis to distinguish GFP-derived fluorescence from background fluorescence was used: GFP was measured in FL1 and cellular autofluorescence was monitored in FL2. The percentage of GFP-positive cells was calculated based on live cells (Jordan et al., 2003).

[2] = test system: MDA231-LM2 tumor; experiment: MDA231-LM2 tumor model in athymic nude mice; assay type: in vivo; conditions: 50 mg/kg once daily, 15 intraperitoneal injections
Experimental: FIG. 7. SEC disruptors delay tumor progression and improve survival of MDA231-LM2 tumor mice. (A) Schematic of the development of MDA231-LM2 tumors in athymic nude mice (Wang et al., 2017). 4×10^6 MDA231-LM2 cells were inoculated into the fat pads of nude mice. 17 days after injection, when the tumor reached 100 mm^3, mice were divided randomly into three groups. Drug treatments were performed with once daily with 50 mg/kg KL-1, 10 mg/kg KL-2 or PBS (vehicle) for a total of 15 intraperitoneal injections. (B-C) KL-1 and KL-2 delay the tumor growth in the MDA231-LM2 tumor mouse model. The average tumor sizes of the vehicle (n=6), KL-1 (n=7), and KL-2 (n=5) treated groups were plotted from day 5 to day 36 after inoculation (B). Representative tumors sizes are shown (C). […] A 2-way unpaired student's t-test was used for statistical analysis. (E) Kaplan-Meier survival curves of vehicle, KL-1, and KL-2 treated nude mice transplanted with 4×10^6MDA231-LM2 cells. 17 days after inoculation, vehicle (n=6), KL-1 (n=7), and KL-2 (n=5) were administered daily for 15 intraperitoneal injections. Mice were euthanized when the tumor size reached 1000 mm^3. Thep values were calculated using the log-rank test.
MDA231-LM2 Tumor Model. […] The tumor sizes were measured twice a week and the mice were euthanized when the tumor size reached 1000 mm^3.

COc1cccc(C(=O)CC(=O)C(=O)Nc2cc(Cl)ccc2C)c1 [KL-1, N-(5-chloro-2-methylphenyl)-4-oxo-4-(3-methoxyphenyl)-2-oxobutanamide] was tested, and the “GFP expression after PMA induction” value [1] was “strong inhibition of GFP expression”, the “survival of the recipient mice” value [2] was “significantly extended survival” and the “tumor progression (tumor sizes)” value [2] was “delayed tumor progression”.
